Tests used:
[1] = tested on: MDA-MB 435 human melanoma cells; test: Fluorescence uptake of Cy5-labeled selective transport molecules in tumor and muscle (Table 2), MDA-MB 435; format: in vivo, mice
Protocol: (§1) Xenografts with HT1080 human fibroscarcoma cells (ATCC) or MDA-MB 435 human melanoma cells were used. Allografts were generated in the lab with 8119 murine mammary adenocarcinoma cells and B16F10 murine melanoma cells. 1×10^6 cells (either 8119 or BI6F10) were injected intramuscularly into the left flank of albino C57BL/6 mice. Tumor allografts were monitored until tumor size was approximately 1 cm in largest diameter (approximately 7-10 days).
(§2) Briefly 30 mg tissues was homogenized and heated in SDS buffer, frozen, and then imaged by fluorescence. SUV ((moles/g tissue)/(moles injected/weight of the animal)) values were determined by comparing experimental fluorescence to standard curves derived by peptide spiked tissue processed similarly.
(§3) To test whether selective transport molecules are taken up differentially between tumor and normal tissue, allografts derived from spontaneous mammary adenocarcinoma tumors in transgenic mice (line 8119, MMTV-PyMT) and the murine melanoma cell line B16F10 transplanted into immune competent mice, and human cancer cell lines (MDA-MB 435 melanoma and HT1080 fibrosarcoma) xenografted into nude mice, were imaged after intravenous injection of Cy5-labeled selective transport molecules and sufficient time for elimination of uncleaved selective transport molecules. Cy5 was chosen as a labeling marker because of its reduced tissue absorption in the near infrared range.

[2] = as above; format: in vivo, mice; details: nude, mouse, in vivo, iv; MDA-MB 435 xenograft
Protocol: as §1, §2, §3

[3] = Fluorescence uptake of Cy5-labeled selective transport molecules in tumor and muscle (Table 2), B16F10; format: in vivo, mice; details: albino C57BL/6, mouse, in vivo, iv; B16F10 allograft
Protocol: as §1, §2, §3

[4] = tested on: B16F10 murine melanoma cells; test: as above; format: in vivo, mice; details: B16F10 allograft
Protocol: as §1, §2, §3

HT1080 cells = test: Residual tumor cell quantification with Alu PCR after guided surgery; format: in vivo, mice; details: free 10 nmoles 6 hours, dendrimer 2 nmoles 48 hours prior to surgery
Protocol: Animals used for quantification of residual tumor cells after surgery were performed on xenograft of HT1080 cells generated as detailed above Animals were anesthetized with 80 mg/kg ketamine and 40 mg/kg midazolam. Following skin incision and retraction, tumors were removed with microsurgical technique using a dissecting microscope (Zeiss, Lumar).
Fluorescence guidance of tumor excision was performed as detailed above for the survival studies with GFP, free selective transport molecule (10 nmoles; 6 hours prior to surgery) or dendrimer selective transport molecule (2 nmoles; 48 hours prior to surgery). For animals in the GFP guidance arm, the surgical field was assessed through the dissecting scope with excitation and emission parameters for GFP. […] Following completion of tumor resection, the remaining surgical bed was resected with at least a 5 mm margin in all contiguous dimensions and analyzed for Alu sequences. Alu PCR analysis of the remaining surgical bed for residual tumor cells were performed. […]
To quantify the efficacy of tumor excision with selective transport molecule guidance, we used Alu PCR to measure residual human (cancer) cells remaining in the tumor bed after surgical excision.

[5] = Fluorescence uptake of Cy5-labeled selective transport molecules in tumor and muscle (Table 2), 8119; format: in vivo, mice; details: albino C57BL/6, mouse, in vivo, iv; 8119 allograft
Protocol: as §1, §2, §3

[6] = tested on: 8119 murine mammary adenocarcinoma cells; test: as above; format: in vivo, mice; details: 8119 allograft
Protocol: as §1, §2, §3

[7] = Fluorescence uptake of Cy5-labeled selective transport molecules in tumor and muscle (Table 2), HT1080; format: in vivo, mice; details: nude, mouse, in vivo, iv; HT1080 xenograft
Protocol: as §1, §2, §3

[8] = tested on: HT1080 human fibroscarcoma cells; test: as above; format: in vivo, mice; details: HT1080 xenograft
Protocol: as §1, §2, §3

[9] = Stability of pDox by analytical HPLC and mass spectra; format: physicochemical
Protocol: pDox dendrimers were synthesized with the intent to coat the dendrimers with one pDox and three Cy5s thus making the dendrimers brightly fluorescent in the far-red. The pDox dendrimer samples that were incubated overnight in pH 7.4 and pH 5 buffer as described previously were injected on HPLC/mass spec. HPLC was run using 30-60% Acetonitrile in water with 0.5% TFA gradient on a reverse phased column. Doxorubicin (470-490) and Cy5 (645-655) absorbance peaks were monitored to reveal a new doxorubicin peak in the pH 5 sample. This peak was proven to be free pDox based upon the mass spec. For quantitation, dendrimers were run on another HPLC using a different C18 reverse phase column with a 10-90% ACN gradient column with 0.14% TFA which has a fluorescence detector. […] To quantify the amount of pDox that was hydrolyzed off the dendrimer, 200 pmols of sample was injected and compared to a standard curve of 12, 36, and 60 pmols of pDox alone.
pDox was synthesized and reacted with the dendrimer via hydrazone linker as done with doxorubicin dendrimers discussed earlier. […] The labeling was so low that the absorbance was undetectable by UV Spectroscopy. It was only by fluorescence spectra measured on a plate reader that it was clear pDox was conjugated to the dendrimers but this was not able to be quantified. […]

HT1080 bearing mice = test: Maximum tolerated dose of pDox

CCN1C(=CC=CC=CC2=[N+](CCCCCC(=O)NCCN3C(=O)CC(SC[C@@H](NC(=O)[C@@H](CCCNC(=N)N)NC(=O)[C@@H](CCCNC(=N)N)NC(=O)[C@@H](CCCNC(=N)N)NC(=O)[C@@H](CCCNC(=N)N)NC(=O)[C@@H](CCCNC(=N)N)NC(=O)[C@@H](CCCNC(=N)N)NC(=O)[C@@H](CCCNC(=N)N)NC(=O)[C@@H](CCCNC(=N)N)NC(=O)[C@@H](CCCNC(=N)N)NC(=O)CNC(=O)[C@H](C)NC(=O)[C@H](CSC)NC(=O)CNC(=O)[C@H](CC(C)C)NC(=O)[C@@H]4CCCN4C(=O)COCCNC(=O)[C@@H](CCC(=O)O)NC(=O)[C@@H](CCC(=O)O)NC(=O)[C@@H](CCC(=O)O)NC(=O)[C@@H](CCC(=O)O)NC(=O)[C@@H](CCC(=O)O)NC(=O)[C@@H](CCC(=O)O)NC(=O)[C@@H](CCC(=O)O)NC(=O)[C@@H](CCC(=O)O)NC(=O)CCC(=O)O)C(N)=O)C3=O)c3ccc(S(=O)(=O)[O-])cc3C2(C)C)C(C)(C)c2cc(S(=O)(=O)O)ccc21 (single isomer, unassigned) [Free Selective Transport Molecules]
Ratio (tumor to muscle) ([1]; MDA-MB 435 xenograft): 2.45
Muscle (fluorescence uptake) ([1]; MDA-MB 435 xenograft, Cy5 label, intravenous): 0.29 ± 0.068
Tumor (fluorescence uptake) ([1]; MDA-MB 435 xenograft, Cy5 label, intravenous, SUV defined): 0.17 ± 0.05
contrast between tumor and adjacent normal tissue ([1]; same figures as the MDA-MB 435 ratios of Table 2): 2.45 fold
tissue to tissue ratio [2]: 2.45
tissue to tissue ratio [3]: 2.4
Ratio (tumor to muscle) [4]: 2.4
Muscle (fluorescence uptake) ([4]; Cy5 label, intravenous): 0.10 ± 0.03
Tumor (fluorescence uptake) ([4]; Cy5 label, intravenous): 0.24 ± 0.06
log [DNA] (residual tumor DNA in surgical bed) (HT1080 cells): 4.67±0.33
tissue to tissue ratio [5]: 3.5
Ratio (tumor to muscle) [6]: 3.5
Muscle (fluorescence uptake) ([6]; Cy5 label, intravenous): 0.11 ± 0.06
Tumor (fluorescence uptake) ([6]; Cy5 label, intravenous): 0.39 ± 0.12
tissue to tissue ratio [7]: 3.82
Ratio (tumor to muscle) [8]: 3.82
Muscle (fluorescence uptake) ([8]; Cy5 label, intravenous): 0.11 ± 0.08
Tumor (fluorescence uptake) ([8]; Cy5 label, intravenous): 0.42 ± 0.08

COc1cccc2c1C(=O)c1c(O)c3c(c(O)c1C2=O)C[C@@](O)(C(=O)CO)C[C@@H]3O[C@H]1C[C@H](N2C=CCC2)[C@H](O)[C@H](C)O1 [pDox, 2-pyrrolino doxorubicin]
stability [9]: severe stability problems
effect on tumor growth (HT1080 bearing mice; 0.1 mg/kg): significantly slowed tumor growth
lethality (HT1080 bearing mice; 0.3 and 1 mg/kg, two mice each): died within 24 hours
maximum tolerated dose (HT1080 bearing mice; HT1080 bearing mice): 0.1 mg/kg

Source: US9682151B2, “Peptides whose uptake in cells is controllable” (The Regents of the University of California, priority 2009, dated 2017)
